Source: the NIST ThermoML archive (doi:10.1021/acs.jced.9b00442)
Numbers after ± are expanded uncertainties.

Details: 296.15 K; 100 kPa; Liquid; Vibrating tube method

First: CC[N+](CCO)(CCO)CCO.O=S(=O)([N-]S(=O)(=O)C(F)(F)F)C(F)(F)F
Second: CCCC[N+](CCO)(CCO)CCO.O=S(=O)([N-]S(=O)(=O)C(F)(F)F)C(F)(F)F
The mass density of the first is higher: 1531.5 ± 1.2 kg/m3 for the first, 1458.3 ± 1.2 kg/m3 for the second.

In the case of `CC[N+](C)(CCO)CCO.O=S(=O)([N-]S(=O)(=O)C(F)(F)F)C(F)(F)F`, the mass density is reported as 1517.1 ± 1.2 kg/m3.

Same assay, conditions: 297.15 K; 100 kPa; Liquid; Vibrating tube method

First: C[N+](CCO)(CCO)CCO.O=S(=O)([N-]S(=O)(=O)C(F)(F)F)C(F)(F)F
Second: CC[N+](C)(CCO)CCO.O=S(=O)([N-]S(=O)(=O)C(F)(F)F)C(F)(F)F
The mass density of the first is higher: 1567.7 ± 1.2 kg/m3 for the first, 1516.2 ± 1.2 kg/m3 for the second.

Going from `CC[N+](CCO)(CCO)CCO.O=S(=O)([N-]S(=O)(=O)C(F)(F)F)C(F)(F)F` to `CCCC[N+](CCO)(CCO)CCO.O=S(=O)([N-]S(=O)(=O)C(F)(F)F)C(F)(F)F`, the mass density falls from 1530.6 ± 1.2 kg/m3 to 1457.5 ± 1.2 kg/m3.

Same assay, conditions: 298.15 K; 100 kPa; Liquid; Concentric cylinders viscometry

First: C[N+](CCO)(CCO)CCO.O=S(=O)([N-]S(=O)(=O)C(F)(F)F)C(F)(F)F
Second: CC[N+](C)(CCO)CCO.O=S(=O)([N-]S(=O)(=O)C(F)(F)F)C(F)(F)F
The viscosity of the first is higher: 568.8 ± 29 mPa·s for the first, 268.3 ± 12 mPa·s for the second.

First: CC[N+](CCO)(CCO)CCO.O=S(=O)([N-]S(=O)(=O)C(F)(F)F)C(F)(F)F
Second: CCCC[N+](CCO)(CCO)CCO.O=S(=O)([N-]S(=O)(=O)C(F)(F)F)C(F)(F)F
The viscosity of the first is lower: 840.6 ± 45 mPa·s for the first, 1072 ± 59 mPa·s for the second.

Same assay, conditions: 298.15 K; 100 kPa; Liquid; Frequency=0.0006 MHz; Alternating current cell with electrodes

Going from `C[N+](CCO)(CCO)CCO.O=S(=O)([N-]S(=O)(=O)C(F)(F)F)C(F)(F)F` to `CC[N+](C)(CCO)CCO.O=S(=O)([N-]S(=O)(=O)C(F)(F)F)C(F)(F)F`, the electrical conductivity rises from 0.036 ± 0.001 S/m to 0.076 ± 0.002 S/m.

Going from `CC[N+](CCO)(CCO)CCO.O=S(=O)([N-]S(=O)(=O)C(F)(F)F)C(F)(F)F` to `CCCC[N+](CCO)(CCO)CCO.O=S(=O)([N-]S(=O)(=O)C(F)(F)F)C(F)(F)F`, the electrical conductivity falls from 0.026 ± 0.001 S/m to 0.016 ± 0.001 S/m.

Same assay, conditions: 298.15 K; 100 kPa; Liquid; Vibrating tube method

Going from `C[N+](CCO)(CCO)CCO.O=S(=O)([N-]S(=O)(=O)C(F)(F)F)C(F)(F)F` to `CC[N+](C)(CCO)CCO.O=S(=O)([N-]S(=O)(=O)C(F)(F)F)C(F)(F)F`, the mass density falls from 1566.8 ± 1.2 kg/m3 to 1515.3 ± 1.2 kg/m3.

Going from `CC[N+](CCO)(CCO)CCO.O=S(=O)([N-]S(=O)(=O)C(F)(F)F)C(F)(F)F` to `CCCC[N+](CCO)(CCO)CCO.O=S(=O)([N-]S(=O)(=O)C(F)(F)F)C(F)(F)F`, the mass density falls from 1529.7 ± 1.2 kg/m3 to 1456.6 ± 1.2 kg/m3.

Same assay, conditions: 299.16 K; 100 kPa; Liquid; Vibrating tube method

First: C[N+](CCO)(CCO)CCO.O=S(=O)([N-]S(=O)(=O)C(F)(F)F)C(F)(F)F
Second: CC[N+](C)(CCO)CCO.O=S(=O)([N-]S(=O)(=O)C(F)(F)F)C(F)(F)F
The mass density of the first is higher: 1565.9 ± 1.2 kg/m3 for the first, 1514.4 ± 1.2 kg/m3 for the second.

Compared with `CC[N+](CCO)(CCO)CCO.O=S(=O)([N-]S(=O)(=O)C(F)(F)F)C(F)(F)F`, `CCCC[N+](CCO)(CCO)CCO.O=S(=O)([N-]S(=O)(=O)C(F)(F)F)C(F)(F)F` is lower in mass density: 1528.9 ± 1.2 kg/m3 for the first, 1455.7 ± 1.2 kg/m3 for the second.

Same assay, conditions: 300.16 K; 100 kPa; Liquid; Vibrating tube method

Going from `C[N+](CCO)(CCO)CCO.O=S(=O)([N-]S(=O)(=O)C(F)(F)F)C(F)(F)F` to `CC[N+](C)(CCO)CCO.O=S(=O)([N-]S(=O)(=O)C(F)(F)F)C(F)(F)F`, the mass density falls from 1565 ± 1.2 kg/m3 to 1513.4 ± 1.2 kg/m3.

Compared with `CC[N+](CCO)(CCO)CCO.O=S(=O)([N-]S(=O)(=O)C(F)(F)F)C(F)(F)F`, `CCCC[N+](CCO)(CCO)CCO.O=S(=O)([N-]S(=O)(=O)C(F)(F)F)C(F)(F)F` is lower in mass density: 1528 ± 1.2 kg/m3 for the first, 1454.9 ± 1.2 kg/m3 for the second.

Same assay, conditions: 301.15 K; 100 kPa; Liquid; Vibrating tube method

Going from `C[N+](CCO)(CCO)CCO.O=S(=O)([N-]S(=O)(=O)C(F)(F)F)C(F)(F)F` to `CC[N+](C)(CCO)CCO.O=S(=O)([N-]S(=O)(=O)C(F)(F)F)C(F)(F)F`, the mass density falls from 1564.1 ± 1.2 kg/m3 to 1512.5 ± 1.2 kg/m3.

First: CC[N+](CCO)(CCO)CCO.O=S(=O)([N-]S(=O)(=O)C(F)(F)F)C(F)(F)F
Second: CCCC[N+](CCO)(CCO)CCO.O=S(=O)([N-]S(=O)(=O)C(F)(F)F)C(F)(F)F
The mass density of the first is higher: 1527.1 ± 1.2 kg/m3 for the first, 1454 ± 1.2 kg/m3 for the second.

Same assay, conditions: 302.15 K; 100 kPa; Liquid; Vibrating tube method

Compared with `C[N+](CCO)(CCO)CCO.O=S(=O)([N-]S(=O)(=O)C(F)(F)F)C(F)(F)F`, `CC[N+](C)(CCO)CCO.O=S(=O)([N-]S(=O)(=O)C(F)(F)F)C(F)(F)F` is lower in mass density: 1563.2 ± 1.2 kg/m3 for the first, 1511.6 ± 1.2 kg/m3 for the second.

First: CC[N+](CCO)(CCO)CCO.O=S(=O)([N-]S(=O)(=O)C(F)(F)F)C(F)(F)F
Second: CCCC[N+](CCO)(CCO)CCO.O=S(=O)([N-]S(=O)(=O)C(F)(F)F)C(F)(F)F
The mass density of the first is higher: 1526.2 ± 1.2 kg/m3 for the first, 1453.1 ± 1.2 kg/m3 for the second.

Same assay, conditions: 303.15 K; 100 kPa; Liquid; Concentric cylinders viscometry

Compared with `C[N+](CCO)(CCO)CCO.O=S(=O)([N-]S(=O)(=O)C(F)(F)F)C(F)(F)F`, `CC[N+](C)(CCO)CCO.O=S(=O)([N-]S(=O)(=O)C(F)(F)F)C(F)(F)F` is lower in viscosity: 397.8 ± 19 mPa·s for the first, 197.7 ± 8.7 mPa·s for the second.

Compared with `CC[N+](CCO)(CCO)CCO.O=S(=O)([N-]S(=O)(=O)C(F)(F)F)C(F)(F)F`, `CCCC[N+](CCO)(CCO)CCO.O=S(=O)([N-]S(=O)(=O)C(F)(F)F)C(F)(F)F` is higher in viscosity: 569.4 ± 29 mPa·s for the first, 708.7 ± 37 mPa·s for the second.

Same assay, conditions: 303.15 K; 100 kPa; Liquid; Frequency=0.0006 MHz; Alternating current cell with electrodes

Going from `C[N+](CCO)(CCO)CCO.O=S(=O)([N-]S(=O)(=O)C(F)(F)F)C(F)(F)F` to `CC[N+](C)(CCO)CCO.O=S(=O)([N-]S(=O)(=O)C(F)(F)F)C(F)(F)F`, the electrical conductivity rises from 0.05 ± 0.001 S/m to 0.101 ± 0.002 S/m.

Going from `CC[N+](CCO)(CCO)CCO.O=S(=O)([N-]S(=O)(=O)C(F)(F)F)C(F)(F)F` to `CCCC[N+](CCO)(CCO)CCO.O=S(=O)([N-]S(=O)(=O)C(F)(F)F)C(F)(F)F`, the electrical conductivity falls from 0.037 ± 0.001 S/m to 0.024 ± 0.001 S/m.

Same assay, conditions: 303.15 K; 100 kPa; Liquid; Vibrating tube method

First: C[N+](CCO)(CCO)CCO.O=S(=O)([N-]S(=O)(=O)C(F)(F)F)C(F)(F)F
Second: CC[N+](C)(CCO)CCO.O=S(=O)([N-]S(=O)(=O)C(F)(F)F)C(F)(F)F
The mass density of the first is higher: 1562.3 ± 1.2 kg/m3 for the first, 1510.7 ± 1.2 kg/m3 for the second.

First: CC[N+](CCO)(CCO)CCO.O=S(=O)([N-]S(=O)(=O)C(F)(F)F)C(F)(F)F
Second: CCCC[N+](CCO)(CCO)CCO.O=S(=O)([N-]S(=O)(=O)C(F)(F)F)C(F)(F)F
The mass density of the first is higher: 1525.4 ± 1.2 kg/m3 for the first, 1452.3 ± 1.2 kg/m3 for the second.

Same assay, conditions: 304.15 K; 100 kPa; Liquid; Vibrating tube method

First: C[N+](CCO)(CCO)CCO.O=S(=O)([N-]S(=O)(=O)C(F)(F)F)C(F)(F)F
Second: CC[N+](CCO)(CCO)CCO.O=S(=O)([N-]S(=O)(=O)C(F)(F)F)C(F)(F)F
The mass density of the first is higher: 1561.4 ± 1.2 kg/m3 for the first, 1524.5 ± 1.2 kg/m3 for the second.

Work on `CCCC[N+](CCO)(CCO)CCO.O=S(=O)([N-]S(=O)(=O)C(F)(F)F)C(F)(F)F` yielded a mass density of 1451.4 ± 1.2 kg/m3.
